Results: patent publication US20090030066A1, “SMALL MOLECULES FOR THE PROTECTION OF PANCREATIC CELLS” (priority 2007, published 2009)

What was measured:
STZ-treated mice [1] = assay: Blood glucose and body weight in STZ-treated mice, first experiment (not fasted); assay type: in vivo; details: for Body weight: in g
Procedure: Male C57BL/6 mice (12 weeks old) were housed in a specific pathogen-free facility with a 12-h light/dark cycle and given free access to food and water. Animals weighing between 28-31 g were selected for the experiments. In each group, at the start of experiment the body weight among individual animals differed by less than 1-g.
One group of mice received no treatment over the entire experiment. A second group received only 4.5 mg per kg of CCompound1 on days −2, −1, 0, +1, +2, +3, +4, +5, +6 and +7. A third/fourth/fifth/sixth group of animals were treated i.p. with 210 mg/kg of STZ on day 0. The fourth, fifth, and sixth group of animals also received 4.5 mg per kg each of CCompound1 (CC1; 4th group) or CCompound3 (CC3; 5th group), or CCompound19 (CC19; 6th group) on days −2, −1, 0, +1, +2, +3, +4, +5, +6 and +7 (with STZ treatment given on day 0). Each group consisted of 7 animals. Body weight was measured regularly.
CC compounds were dissolved in physiological saline while STZ was dissolved in 100 mM sodium citrate (pH 4.5). All compounds were injected intraperitoneally in 0.5 ml volume. Control animals were injected physiological saline (0.5 ml) on the same days when other groups were treated with CC compounds.
Blood samples were taken from the eye (canthus) of the animals on days −1, 0, +1, +2, +3, +7 and +10, and glucose concentrations in whole blood samples were immediately measured with the commercially available fast Glucose C test. The animals were not fasted prior to taking the blood samples. The results are expressed as the mean values from 7 animals ±std. dev. (S.D.).

STZ-treated mice [2] = assay: STZ-treated mice, second experiment: body weight to day 80 and survival; assay type: in vivo; details: for survivors: 80th day
Text: In a second similar experiment performed with 6 mice in each group, the changes in body weight were followed for up to 80 days (when the last STZ-treated mouse died), and survival was followed for up to 100 days.
For the body weight (on the 80th day) and survival the following values were obtained: Untreated (6 survivors), 37.7 g; STZ-treated (one last survivor died on day 80, others survived for 22, 25, 27, 60, 75 days), 26.0 g; CCompound1-treated (6 survivors), 36.0 g; STZ+CCompound1 treated (6 survivors), 33.4 g; STZ+CCompound3-treated (5 survivors; one mouse died on day 78), 32.5 g. At the start of the experiment (day 0), the average body weight ranged from 28.6 to 29.8 g. Accordingly, by day 80, STZ-treated animals that were also treated with CCompound1 and CCompound3 gained about 50% of the weight gained by the untreated animals.

[3] = STZ + compound, 6 mice per group

`Cc1c(OCC(O)C[N+](C)(C)C)cc2c(=O)c3ccccc3sc2c1C.[Cl-]` (centres unmarked) [CCcompound1, [3-(3,4-Dimethyl-9-oxo-9H-thioxanthen-2-yloxy)-2-hydroxypropyl]trimethyl-ammonium chloride] was tested, and the “effect of compound alone on blood glucose level” value (STZ-treated mice [1]; 4.5 mg/kg i.p., no STZ) was “no effect on blood glucose level”, the Body weight (STZ-treated mice [1]; STZ 210 mg/kg + compound 4.5 mg/kg i.p., day 0, unit not given) was 28.2 ± 0.7 and the Body weight (STZ-treated mice [1]; STZ 210 mg/kg + compound 4.5 mg/kg i.p., day +1, unit not given) was 28.0 ± 0.7. The Body weight (STZ-treated mice [1]; STZ 210 mg/kg + compound 4.5 mg/kg i.p., day +2, unit not given) was 26.9 ± 0.8, the Body weight (STZ-treated mice [1]; STZ 210 mg/kg + compound 4.5 mg/kg i.p., day +3, unit not given) was 26.9 ± 0.5 and the Body weight (STZ-treated mice [1]; STZ 210 mg/kg + compound 4.5 mg/kg i.p., day +7, unit not given) was 27.1 ± 0.7. The Body weight (STZ-treated mice [1]; STZ 210 mg/kg + compound 4.5 mg/kg i.p., day +10, unit not given) was 27.2 ± 0.9, the Blood glucose (STZ-treated mice [1]; STZ 210 mg/kg i.p. day 0 + compound 4.5 mg/kg i.p. days −2 to +7, day 0) was 4.1 ± 0.4 mM and the Blood glucose (STZ-treated mice [1]; STZ 210 mg/kg i.p. day 0 + compound 4.5 mg/kg i.p. days −2 to +7, day +1) was 5.7 ± 0.5 mM. The Blood glucose (STZ-treated mice [1]; STZ 210 mg/kg i.p. day 0 + compound 4.5 mg/kg i.p. days −2 to +7, day +2) was 8.2 ± 1.4 mM, the Blood glucose (STZ-treated mice [1]; STZ 210 mg/kg i.p. day 0 + compound 4.5 mg/kg i.p. days −2 to +7, day +3) was 10.1 ± 1.5 mM and the Blood glucose (STZ-treated mice [1]; STZ 210 mg/kg i.p. day 0 + compound 4.5 mg/kg i.p. days −2 to +7, day +7) was 10.9 ± 1.2 mM. For the same compound, the Blood glucose (STZ-treated mice [1]; STZ 210 mg/kg i.p. day 0 + compound 4.5 mg/kg i.p. days −2 to +7, day +10) was 11.0 ± 0.8 mM, the Blood glucose (STZ-treated mice [1]; STZ 210 mg/kg i.p. day 0 + compound 4.5 mg/kg i.p. days −2 to +7, day −1) was 4.6 ± 0.7 mM and the “protection of islet β-cells” value (STZ-treated mice [1]; STZ-induced type 1 diabetes model) was “protected islet β-cells”. The “effect on STZ-induced rise of blood glucose” value (STZ-treated mice [1]; STZ-treated animals, 4.5 mg/kg i.p.) was “prevent drastic increase in blood glucose level”, the “effect on STZ-induced body weight loss” value (STZ-treated mice [1]; STZ-treated mice, to day 10) was “reduced the effect of STZ on body weight” and the Blood glucose (STZ-treated mice [1]; compound alone 4.5 mg/kg i.p. days −2 to +7, no STZ, day 0) was 4.5 ± 0.4 mM. For the same compound, the Blood glucose (STZ-treated mice [1]; compound alone 4.5 mg/kg i.p. days −2 to +7, no STZ, day +1) was 4.7 ± 0.6 mM, the Blood glucose (STZ-treated mice [1]; compound alone 4.5 mg/kg i.p. days −2 to +7, no STZ, day +2) was 4.6 ± 0.4 mM and the Blood glucose (STZ-treated mice [1]; compound alone 4.5 mg/kg i.p. days −2 to +7, no STZ, day +3) was 4.7 ± 0.4 mM. The Blood glucose (STZ-treated mice [1]; compound alone 4.5 mg/kg i.p. days −2 to +7, no STZ, day +7) was 4.6 ± 0.4 mM, the Blood glucose (STZ-treated mice [1]; compound alone 4.5 mg/kg i.p. days −2 to +7, no STZ, day +10) was 4.3 ± 0.6 mM and the Blood glucose (STZ-treated mice [1]; compound alone 4.5 mg/kg i.p. days −2 to +7, no STZ, day −1) was 4.5 ± 0.4 mM. The Body weight (STZ-treated mice [1]; compound alone 4.5 mg/kg i.p., no STZ, day 0, unit not printed in table (animals 28-31 g)) was 28.2 ± 0.9, the Body weight (STZ-treated mice [1]; compound alone 4.5 mg/kg i.p., no STZ, day +1, unit not given) was 28.7 ± 0.4 and the Body weight (STZ-treated mice [1]; compound alone 4.5 mg/kg i.p., no STZ, day +2, unit not given) was 28.1 ± 0.4. The Body weight (STZ-treated mice [1]; compound alone 4.5 mg/kg i.p., no STZ, day +3, unit not given) was 28.7 ± 0.7, the Body weight (STZ-treated mice [1]; compound alone 4.5 mg/kg i.p., no STZ, day +7, unit not given) was 29.5 ± 0.8 and the Body weight (STZ-treated mice [1]; compound alone 4.5 mg/kg i.p., no STZ, day +10, unit not given) was 30.3 ± 1.4. The “weight gained by day 80 relative to the weight gained by the untreated animals” value (STZ-treated mice [2]; STZ + compound) was “about 50%”, the “body weight on the 80th day” value (STZ-treated mice [2]; [3]) was 33.4 g and the survivors (STZ-treated mice [2]; [3]) was 6. The “body weight on the 80th day” value (STZ-treated mice [2]; compound alone, no STZ, 6 mice) was 36.0 g and the survivors (STZ-treated mice [2]; compound alone, no STZ, 6 mice per group) was 6.
